Source: ChEMBL document CHEMBL2375290, “Nonclassical antifolates, part 3: synthesis, biological evaluation and molecular modeling study of some new 2-heteroarylthio-quinazolin-4-ones” (Eur J Med Chem, 2013)

Tests used:
[1] = test system: T47D; test: Cytotoxicity against human T47D cells at 10 uM after 48 hrs by coulter counter analysis; format: functional; settings: read-out: GI
[2] = test system: Hs-578T; test: Cytotoxicity against human Hs578T cells at 10 uM after 48 hrs by coulter counter analysis; format: functional; settings: read-out: GI
[3] = test system: MCF7; test: Cytotoxicity against human MCF7 cells at 10 uM after 48 hrs by coulter counter analysis; format: functional; settings: MCF7, 48 h, read-out: GI
[4] = test system: MDA-MB-231; test: Cytotoxicity against human MDA-MB-231 cells at 10 uM after 48 hrs by coulter counter analysis; format: functional; settings: MDA-MB-231, 48 h, read-out: GI
[5] = test system: PC-3; test: Cytotoxicity against human PC3 cells at 10 uM after 48 hrs by coulter counter analysis; format: functional; settings: PC-3, 48 h, read-out: GI
[6] = test system: UO-31; test: Cytotoxicity against human UO31 cells at 10 uM after 48 hrs by coulter counter analysis; format: functional; settings: UO-31, 48 h, read-out: GI
[7] = test system: RXF 393; test: Cytotoxicity against human RXF393 cells at 10 uM after 48 hrs by coulter counter analysis; format: functional; settings: RXF 393, 48 h, read-out: GI
[8] = test system: SN12C; test: Cytotoxicity against human SN12C cells at 10 uM after 48 hrs by coulter counter analysis; format: functional; settings: read-out: GI
[9] = test system: A498; test: Cytotoxicity against human A498 cells at 10 uM after 48 hrs by coulter counter analysis; format: functional; settings: A498, 48 h, read-out: GI
[10] = test system: CAKI-1; test: Cytotoxicity against human Caki1 cells at 10 uM after 48 hrs by coulter counter analysis; format: functional; settings: CAKI-1, 48 h, read-out: GI
[11] = Cytotoxicity against human NCI-ADR-RES cells at 10 uM after 48 hrs by coulter counter analysis; format: functional; settings: read-out: GI
[12] = test system: OVCAR-4; test: Cytotoxicity against human OVCAR4 cells at 10 uM after 48 hrs by coulter counter analysis; format: functional; settings: OVCAR-4, 48 h, read-out: GI
[13] = test system: UACC-62; test: Cytotoxicity against human UACC62 cells at 10 uM after 48 hrs by coulter counter analysis; format: functional; settings: UACC-62, 48 h, read-out: GI
[14] = test system: IGROV-1; test: Cytotoxicity against human IGROV1 cells at 10 uM after 48 hrs by coulter counter analysis; format: functional; settings: IGROV-1, 48 h, read-out: GI
[15] = test system: SK-MEL-5; test: Cytotoxicity against human SK-MEL-5 cells at 10 uM after 48 hrs by coulter counter analysis; format: functional; settings: SK-MEL-5, 48 h, read-out: GI
[16] = test system: Malme-3M; test: Cytotoxicity against human MALME-3M cells at 10 uM after 48 hrs by coulter counter analysis; format: functional; settings: read-out: GI
[17] = test system: MDA-MB-435; test: Cytotoxicity against human MDA-MB-435 cells at 10 uM after 48 hrs by coulter counter analysis; format: functional; settings: MDA-MB-435, 48 h, read-out: GI
[18] = test system: SNB-75; test: Cytotoxicity against human SNB75 cells at 10 uM after 48 hrs by coulter counter analysis; format: functional; settings: SNB-75, 48 h, read-out: GI
[19] = test system: LOX IMVI; test: Cytotoxicity against human LOXIMVI cells at 10 uM after 48 hrs by coulter counter analysis; format: functional; settings: read-out: GI
[20] = test system: SNB-19; test: Cytotoxicity against human SNB19 cells at 10 uM after 48 hrs by coulter counter analysis; format: functional; settings: SNB-19, 48 h, read-out: GI
[21] = test system: NCI-H522; test: Cytotoxicity against human NCI-H522 cells at 10 uM after 48 hrs by coulter counter analysis; format: functional; settings: NCI-H522, 48 h, read-out: GI
[22] = test system: SF-295; test: Cytotoxicity against human SF295 cells at 10 uM after 48 hrs by coulter counter analysis; format: functional; settings: SF-295, 48 h, read-out: GI
[23] = test system: NCI-H23; test: Cytotoxicity against human NCI-H23 cells at 10 uM after 48 hrs by coulter counter analysis; format: functional; settings: NCI-H23, 48 h, read-out: GI
[24] = Cytotoxicity against human EKVX cells at 10 uM after 48 hrs by coulter counter analysis; format: functional; settings: read-out: GI
[25] = test system: NCI-H226; test: Cytotoxicity against human NCI-H226 cells at 10 uM after 48 hrs by coulter counter analysis; format: functional; settings: NCI-H226, 48 h, read-out: GI
[26] = test system: A549; test: Cytotoxicity against human A549/ATCC cells at 10 uM after 48 hrs by coulter counter analysis; format: functional; settings: A549, 48 h, read-out: GI
[27] = test system: RPMI-8226; test: Cytotoxicity against human RPMI8226 cells at 10 uM after 48 hrs by coulter counter analysis; format: functional; settings: RPMI-8226, 48 h, read-out: GI
[28] = test system: SR; test: Cytotoxicity against human SR cells at 10 uM after 48 hrs by coulter counter analysis; format: functional; settings: read-out: GI
[29] = test system: MOLT-4; test: Cytotoxicity against human MOLT4 cells at 10 uM after 48 hrs by coulter counter analysis; format: functional; settings: MOLT-4, 48 h, read-out: GI
[30] = test system: CCRF-CEM; test: Cytotoxicity against human CCRF-CEM cells at 10 uM after 48 hrs by coulter counter analysis; format: functional; settings: read-out: GI
[31] = test system: HL-60(TB); test: Cytotoxicity against human HL-60(TB) cells at 10 uM after 48 hrs by coulter counter analysis; format: functional; settings: HL-60, 48 h, read-out: GI
[32] = test system: Pseudomonas aeruginosa; test: Antimicrobial activity against Pseudomonas aeruginosa at 200 ug after 24 hrs by agar disc diffusion method; format: functional; settings: read-out: DIZ
[33] = test system: Escherichia coli; test: Antimicrobial activity against Escherichia coli at 200 ug after 24 hrs by agar disc diffusion method; format: functional; settings: read-out: DIZ
[34] = test system: Micrococcus luteus; test: Antimicrobial activity against Micrococcus luteus at 200 ug after 24 hrs by agar disc diffusion method; format: functional; settings: read-out: DIZ
[35] = test system: Bacillus subtilis; test: Antimicrobial activity against Bacillus subtilis at 200 ug after 24 hrs by agar disc diffusion method; format: functional; settings: read-out: DIZ
[36] = molecular target: T1, Dihydrofolate reductase (Bos taurus, UniProt P00376); test: Inhibition of bovine DHFR after 2 mins by spectrophotometry
T1 sequence (P00376 whole entry): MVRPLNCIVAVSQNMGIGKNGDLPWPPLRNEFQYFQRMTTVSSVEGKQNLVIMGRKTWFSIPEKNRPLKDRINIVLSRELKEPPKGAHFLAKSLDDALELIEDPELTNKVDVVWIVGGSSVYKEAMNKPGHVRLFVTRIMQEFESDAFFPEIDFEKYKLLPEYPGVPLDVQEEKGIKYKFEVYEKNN

[37] = test system: Staphylococcus aureus; test: Antimicrobial activity against Staphylococcus aureus at 200 ug after 24 hrs by agar disc diffusion method; format: functional; settings: read-out: DIZ

Row | Compound | inhibition of growth at 10 µM [1] | inhibition of growth at 10 µM [2] | inhibition of growth at 10 µM [3] | inhibition of growth at 10 µM [4] | inhibition of growth at 10 µM [5] | inhibition of growth at 10 µM [6] | inhibition of growth at 10 µM [7] | inhibition of growth at 10 µM [8] | inhibition of growth at 10 µM [9] | inhibition of growth at 10 µM [10] | inhibition of growth at 10 µM [11] | inhibition of growth at 10 µM [12] | inhibition of growth at 10 µM [13] | inhibition of growth at 10 µM [14] | inhibition of growth at 10 µM [15] | inhibition of growth at 10 µM [16] | inhibition of growth at 10 µM [17] | inhibition of growth at 10 µM [18] | inhibition of growth at 10 µM [19] | inhibition of growth at 10 µM [20] | further results
1 | COc1cc2nc(Sc3cnc(N)s3)n(Cc3ccccc3)c(=O)c2cc1OC | < 10% | < 10% | < 10% | 19.1% | 22.4% | 17.4% | < 10% | < 10% | < 10% | 25.4% | < 10% | < 10% | < 10% | < 10% | 12.9% | < 10% | < 10% | 13.3% | 10.8% | < 10% | inhibition of growth at 10 µM [21]: 19.8%; inhibition of growth at 10 µM [22]: < 10%; inhibition of growth at 10 µM [23]: < 10%; inhibition of growth at 10 µM [24]: 16.1%; inhibition of growth at 10 µM [25]: 10.4%; inhibition of growth at 10 µM [26]: < 10%; inhibition of growth at 10 µM [27]: 15.9%; inhibition of growth at 10 µM [28]: < 10%; inhibition of growth at 10 µM [29]: < 10%; inhibition of growth at 10 µM [30]: 22.8%; inhibition of growth at 10 µM [31]: < 10%; zone of inhibition at 200 µg/disc [32]: 8 mm; zone of inhibition at 200 µg/disc [33]: 16 mm; zone of inhibition at 200 µg/disc [34]: 8 mm; zone of inhibition at 200 µg/disc [35]: 18 mm; IC50 [36]: 3000 nM; zone of inhibition at 200 µg/disc [37]: 17 mm
2 | Cc1ccc2nc(Sc3cnc(N)s3)n(-c3ccccc3)c(=O)c2c1 | < 10% | < 10% | < 10% | 18.1% | 10.1% | 20.7% | < 10% | < 10% | < 10% | 20.9% | < 10% | < 10% | < 10% | 14.3% | < 10% | < 10% | < 10% | < 10% | < 10% | < 10% | inhibition of growth at 10 µM [21]: 13.8%; inhibition of growth at 10 µM [22]: < 10%; inhibition of growth at 10 µM [23]: < 10%; inhibition of growth at 10 µM [24]: < 10%; inhibition of growth at 10 µM [25]: 12.4%; inhibition of growth at 10 µM [26]: < 10%; inhibition of growth at 10 µM [27]: < 10%; inhibition of growth at 10 µM [28]: 37.8%; inhibition of growth at 10 µM [29]: < 10%; inhibition of growth at 10 µM [30]: < 10%; inhibition of growth at 10 µM [31]: < 10%; zone of inhibition at 200 µg/disc [32]: 8 mm; zone of inhibition at 200 µg/disc [33]: 8 mm; zone of inhibition at 200 µg/disc [34]: 8 mm; zone of inhibition at 200 µg/disc [35]: 8 mm; IC50 [36]: 800 nM; zone of inhibition at 200 µg/disc [37]: 8 mm
3 | Cc1ccc2nc(Sc3cnc(N)s3)n(Cc3ccccc3)c(=O)c2c1 | < 10% | < 10% | 10.8% | 15.2% | 22.6% | 29.4% | < 10% | < 10% | < 10% | 30.3% | < 10% | < 10% | 12.2% | 21.8% | < 10% | 12.3% | < 10% | 20.4% | 10.4% | < 10% | inhibition of growth at 10 µM [21]: < 10%; inhibition of growth at 10 µM [22]: 17.3%; inhibition of growth at 10 µM [23]: < 10%; inhibition of growth at 10 µM [24]: 25.9%; inhibition of growth at 10 µM [25]: 19.9%; inhibition of growth at 10 µM [26]: < 10%; inhibition of growth at 10 µM [27]: 16.8%; inhibition of growth at 10 µM [28]: < 10%; inhibition of growth at 10 µM [29]: < 10%; inhibition of growth at 10 µM [30]: < 10%; inhibition of growth at 10 µM [31]: < 10%; zone of inhibition at 200 µg/disc [32]: 8 mm; zone of inhibition at 200 µg/disc [33]: 8 mm; zone of inhibition at 200 µg/disc [34]: 8 mm; zone of inhibition at 200 µg/disc [35]: 8 mm; IC50 [36]: 1000 nM; zone of inhibition at 200 µg/disc [37]: 8 mm
